From US11096985B2, “Antimicrobial peptides, their variants and uses” (priority 2015, dated 2021)
Values after ≈ are worked out from the molar mass of the structure shown. “Also recorded” adds a separate entry of the source. Where a SMILES comes first, the peptide text is derived from it.

Legend:
[1] = tested on: Escherichia coli (ATCC 25922); assay type: cell-based; conditions: ATCC 25922
Protocol: (§1) Minimum inhibition concentrations (MICs) were determined against Escherichia coli (ATCC 25922), Staphylococcus aureus (ATCC 25923), Klebsiella pneumoniae (ATCC 10031) and Pseudomonas aeruginosa (ATCC 27853). Also clinical strains of E. coli, K. pneumoniae, E. cloacae, P. aeruginosa, Serratia marcescens, Proteus mirabilis, S. pneumoniae, Acinetobacter baumannii, A. johnsonii and S. aureus were used for MICs assays. Additionally, clinical strains of yeast including Candida albicans, C. glabrata, C. parapsilosis and C. quillermondiae were used. The susceptibility of these microorganisms to Chain peptides were determined using micro broth dilution assay. Colonies of the respective microorganism from Muller Hinton (MH) agar plates incubated overnight were suspended in MH broth media and final concentration of microorganism was adjusted to 5.0×10^5 cfu/ml. An aliquot of 10 μl of each Chain peptide, or gentamicin, tetracycline as reference antibiotics were added in differing concentrations along with 90 μl of bacterial suspension to 96 well polypropylene plates and incubated at 37° C. for 20 to 24 hours. Concentrations of Chain peptides and reference antibiotics ranged from 0.125 to 128 μg/ml and the MICs were recorded as the lowest concentration with no visual growth of bacteria. Similarly, antifungal MICs were tested in Potato dextrose broth.

[2] = tested on: Staphylococcus aureus (ATCC 25923); assay type: cell-based; conditions: ATCC 25923
Protocol: as §1

[3] = tested on: Klebsiella pneumoniae (ATCC 10031); assay type: cell-based; conditions: ATCC 10031
Protocol: as §1

[4] = tested on: Pseudomonas aeruginosa (ATCC 27853); assay type: cell-based; conditions: ATCC 27853
Protocol: as §1

[5] = tested on: gram positive and negative bacteria; assay: MIC by micro broth dilution, summary over the strains tested; assay type: cell-based
Protocol: as §1

[6] = pH 4-9, RDA
Protocol: (§4) Thermal stability was evaluated by diluting peptides to the concentration of 2 mg/ml in PBS buffer (pH 7.4) and incubating at different temperatures, such as +4° C., 25° C. (RT), 37° C. and 45° C., peptides stored at −20° C. were used as control. […] Peptides were also tested by diluting them at different pH values starting from pH 4 to 9. The effect of NaCl on the antimicrobial activity was tested by adding different concentrations (50, 100 and 200 mM) of NaCl to MH medium and the minimum inhibitory concentrations were tested against 4 ATCC bacterial strains.

[7] = tested on: Aspergillus flavus (DSM 1959); assay: Radial diffusion assay, antifungal, A. flavus; assay type: cell-based; conditions: 20 μg
Protocol: (§2) The radial diffusion assay (RDA) was carried out as described by Andersen et al. (2010). Briefly, 30 ml of 1/10 Muller-Hinton broth (MHB) supplemented with 1% agarose and 5.0×10^5 CFU/ml S. aureus or E. coli or K. pneumoniae, P. aeruginosa cells was poured into a single-well omnitray (Nunc) and overlaid with a TSP 96-well plate. One hundred μg of each synthesized peptide was tested. The peptides were also tested against Fusarium oxysporum and Verticillium dahliae, for which 1/3 potato dextrose agarose was used. To test the synergistic effect of peptides, each peptide was mixed in equimolar concentrations. Mix1 (met1-12), Mix2 (met3, 4 and 5), Mix3 (met 8, 9 and 10), Mix 4 (met11, 12) and Mix5 (8, 9, 10, 11, 12) were prepared and tested against E. coli and S. aureus. Gentamicin and vancomycin were included as positive controls for bacteria and amphotericin B was used as the control for fungi.
(§3) By using rational design techniques, we have designed variants of peptides by incorporating or replacing various amino acids in the original peptides. Thus, we have designed and modified Chain 100, Chain 200 and Chain 300 with tryptophan (W), arginine (R) and lysine (K) at various positions to improve antimicrobial activity (FIGS. 4a-c and 5a-c). In some peptides we have also used other amino acids such as Leucine (L), Cysteine (C), Isoleucine (I), Phenylalanine (F) and Alanine (A). For synthesis, 32 variants and 3 original peptides were selected based on the various parameters such as positive charge, aliphatic index and instability index. Peptides variants were tested by using radial diffusion assay against Escherichia coli (ATCC 25922), Staphylococcus aureus (ATCC 25923), Klebsiella pneumoniae (ATCC 10031) and Pseudomonas aeruginosa (ATCC 27853) (FIGS. 6a-c). The zone of inhibition ranged between 10-18 mm for Escherichia coli and Staphylococcus aureus, 6-18 mm & 8-18 mm for Pseudomonas aeruginosa and Klebsiella pneumonia respectively (Table 2). For Gentamicin it was between 22-24 mm. Antifungal activity was tested for promising antibacterial peptides (Chains 104, 105, 109, 201, 204, 306, 307, 308, 310) against Aspergillus flavus (DSM 1959) and Penicillium chrysogenum (DSM 1075). All these peptides has activity at a concentration of 20 μg, Amphotericin B was used as a positive control at 20 μg (FIG. 7).

4 ATCC bacterial strains = assay: Effect of NaCl on MIC; assay type: cell-based; conditions: 200 mM NaCl in MH medium
Protocol: as §4

[8] = tested on: Penicillium chrysogenum (DSM 1075); assay: Radial diffusion assay, antifungal, P. chrysogenum; assay type: cell-based; conditions: 20 μg
Protocol: as §2, §3

[9] = +4, 25, 37 and 45° C., 14 days, PBS pH 7.4, RDA with 20 μg
Protocol: as §4

human erythrocytes = assay type: cell-based
Protocol: In hemolysis assays, the ability of peptides at 128 μg/ml concentration to lyse human erythrocytes to release hemoglobin was measured. The peptides described here preferably have low hemolytic activity (0.2 to 3.8% hemolysis) in mammal body. […] These peptides are useful as antimicrobial drugs as they show little or no side effects at concentrations needed to kill bacteria.
Minimum inhibition concentrations (MICs) were tested by microbroth dilution method and Chain 104, 105 and 109 inhibited the growth of Escherichia coli (ATCC 25922), Staphylococcus aureus (ATCC 25923), Klebsiella pneumoniae (ATCC 10031) and Pseudomonas aeruginosa (ATCC 27853) between 1-8 μg/ml respectively (Tables 3a, 3b and 3c). The membranolytic activities of the peptides were tested by measuring the release of hemoglobin from erythrocytes of fresh blood donated by voluntiers. Hemoglobin levels were determined spectrometrically by taking OD at 540 nm by following the protocol of Schmidtchen et al., 2011.

E. coli = assay: Transmission electron microscopy of treated E. coli; assay type: cell-based, Escherichia coli; conditions: 10 μg/ml, 37° C., 1 h
Protocol: E. coli and S. aureus were grown to mid-exponential phase and diluted in Muller Hinton broth (MHB) medium to a cell density of 0.1 by taking absorbance at 600 nm and incubated at 37° C. for 1 h with 10 μg/ml Chain peptides. After incubation, an equal volume of 2% glutaraldehyde in 0.1 M phosphate buffer was added and the cells were pelleted by centrifugation at 5000 rpm for 2 minutes, and the cell pellet was fixed with 1% glutaraldehyde in 0.1 M phosphate. Cells were post-fixed with osmium tetroxide, dehydrated using increasing concentrations of acetone or alcohol, and embedded in plastic resin (Epon). Ultrathin sections (70-80 nm) were post-stained with uranyl acetate and lead citrate before observation with TEM. Microscopy was performed with a Tecnai G2 Spirit 120 kV TEM with Veleta and Quemesa CCD cameras.

S. aureus = assay: Antibacterial activity analysis of En-MAP1 protein; assay type: cell-based, Staphylococcus aureus
Protocol: Both folded and unfolded proteins were tested for antibacterial activity against S. aureus by pipetting 10 μg of protein on the S. aureus culture on an LB plate. The activity was also tested in folded and unfolded protein digested with trypsin in 0.01% acetic acid at concentrations of 30 and 60 μg/ml.

Molecule	Minimum inhibitory concentration, Escherichia coli (ATCC 25922) [1] [µg/mL]	Minimum inhibitory concentration, Staphylococcus aureus (ATCC 25923) [2] [µg/mL]	Minimum inhibitory concentration, Klebsiella pneumoniae (ATCC 10031) [3] [µg/mL]	Minimum inhibitory concentration, Pseudomonas aeruginosa (ATCC 27853) [4] [µg/mL]	activity against the four ATCC strains [5]	pH stability (zone of inhibition) [6]	antifungal activity against Aspergillus flavus [7]	increase in MIC values with NaCl (4 ATCC bacterial strains) [fold]	antifungal activity against Penicillium chrysogenum [8]	thermostability (antibacterial activity kept after incubation) [9]	side effects to humans as tested by hemolysis assay (human erythrocytes)	TEM observation of E. coli cells (E. coli)	antibacterial activity against S. aureus, trypsin digest of folded protein (S. aureus; folded full protein digested with trypsin)	antibacterial activity against S. aureus (S. aureus; folded protein or expressed fragments)	antibacterial activity against S. aureus, trypsin digest of unfolded protein (S. aureus; unfolded protein digested with trypsin)
CC[C@H](C)[C@H](NC(=O)[C@H](CCCCN)NC(=O)[C@H](CCCNC(=N)N)NC(=O)[C@H](Cc1c[nH]c2ccccc12)NC(=O)[C@H](CCCNC(=N)N)NC(=O)[C@@H](NC(=O)[C@@H](NC(=O)[C@H](CCCNC(=N)N)NC(=O)[C@@H](N)Cc1c[nH]c2ccccc12)[C@@H](C)CC)C(C)C)C(=O)N[C@@H](CCCCN)C(=O)N[C@@H](CCCNC(=N)N)C(=O)O [Chain209] (H-WRIVRWRKIKR-OH; N-terminus and C-terminus assumed)	64 (≈ 40.1 µM)	>128	>128	>128	–	–	–	–	–	–	–	–	–	–	–
CC(C)C[C@H](NC(=O)[C@H](CCCNC(=N)N)NC(=O)[C@H](Cc1c[nH]c2ccccc12)NC(=O)[C@H](CCCNC(=N)N)NC(=O)[C@H](CCCCN)NC(=O)[C@H](CC(C)C)NC(=O)[C@@H](N)CCCNC(=N)N)C(=O)N[C@@H](Cc1ccccc1)C(=O)N[C@@H](CCCNC(=N)N)C(=O)N[C@@H](CCCCN)C(=O)N[C@@H](CCCNC(=N)N)C(=O)O [Chain306] (H-RLKRWRLFRKR-OH; N-terminus and C-terminus assumed)	–	–	–	–	very active	not hindered by pH	has activity; also recorded: particularly active	2	has activity; also recorded: particularly active	not hindered by pH or temperature even upto 45 °C for over 14 days	–	–	–	–	–
CC(C)C[C@H](NC(=O)[C@H](CC(C)C)NC(=O)[C@H](Cc1ccccc1)NC(=O)[C@H](Cc1c[nH]c2ccccc12)NC(=O)[C@H](CCCCN)NC(=O)[C@H](CC(C)C)NC(=O)[C@@H](N)CCCNC(=N)N)C(=O)N[C@@H](Cc1ccccc1)C(=O)N[C@@H](CCCNC(=N)N)C(=O)N[C@@H](CCCCN)C(=O)N[C@@H](CCCNC(=N)N)C(=O)O [Chain308] (H-RLKWFLLFRKR-OH; N-terminus and C-terminus assumed)	–	–	–	–	very active	not hindered by pH	has activity; also recorded: particularly active	2	has activity; also recorded: particularly active	not hindered by pH or temperature even upto 45 °C for over 14 days	little side effects	almost all E. coli cells had lost their rod-shaped structural integrity	–	–	–
En-MAP1: protein of 549 amino acids from an endophyte of Empetrum nigrum, GenBank KC466596 (protein, listed as Empetrum nigrum) MRLVAHPVPDAPLYALMIKACSMGIPQPNDNLWKPRNPLLAKEEKTSKRGRTAPDTERALDLFREMTLRYNIRPTAEVYTAIIAACVKRDDMYDKGFGLFKKMVELERNRMSSEGHDSTSFAPTRATYNALLRGCARNKDLLRARWILAEMLRTAQAKWQEFMEKSKKGEEGVQEWELLEVEEMRPDTNTMAFLFYTYASHTTSSKAVPETEGKKELEGKAEERASEVTSVSPVSEPPEPMDESKLVYSLPTSSQAILREVTSLLDRIKSDQGQQSNLLSSVQINSKLLNSYIAVLSAHCRSSQVVERISEVVVGTKENPKSLFEETGTSVNGYTCFTVIDACGMMEHSPDTYHLACEMWQRWLSLVENATFHRENPLKAKEIGLDSRTISDCWSAMIRLHAKYNQVDEAMKLVHEFARLYPPASLFNSLTFEPSSTSSSSLSPRKGVQEISPLFSSTSLTHSIRGRDISRIQNTMSQDPTLQFRAVQILHLRLVELETRPKDLAYLSWLLKSYEHQLQPKRPKSLQGDLFTSRQAAYNRIVQQRTSSR	–	–	–	–	–	–	–	–	–	–	–	–	antibacterial activity was observed for up to two hours after digestion	no activity was observed	No activity was detected
